Assay results: patent US20030073629A1, “Omi and domains thereof that disrupt IAP-caspase interaction” (priority 2001, published 2003)
Where a SMILES comes first, the peptide text is derived from it. The star is where a group is joined. Cbz = O=C(OCc1ccccc1)*; CH2F = FC*

How the values were obtained:
[1] = system: Jurkat and HL-60 cells; test: Release of Omi, Smac and cytochrome c to the cytosol and procaspase-3 processing (immunoblot of cytosolic extracts); format: cell-based, human; conditions: staurosporine 2 μM
Protocol: FIG. 13 is a scanned image of a blot representing cytosolic extracts from human Jurkat and HL-60 cells bound to GST-BIR3 and immunoblotted with Omi (top panels), Smac (second panels), Cytochrome c (third panels), or caspase-3 (lower panels) antibodies.
FIG. 14 is a scanned image of a blot representing cytosolic extracts of Jurkat cells treated with TRAIL (1 μg/ml) for the indicated time periods and analyzed by immunoblotting with Omi (top panel), Smac (middle panel), or cytochrome c (bottom panel) antibodies.
To determine whether Omi is released together with Smac and cytochrome c from the mitochondria to the cytoplasm during apoptosis, we treated Jurkat and HL-60 cells with staurosporine (2 μM), which is known to induce the mitochondrial apoptotic pathway, and analyzed their cytosolic extracts by immunoblot analysis. […] Processing of procaspase-3 also followed a similar time course with maximum processing observed at 6-8 hours after treatment. Very little or no Omi or Smac proteins or processing of procaspase-3 were detected in the extracts at zero-time points.

[2] = system: Hela cells; test: Immunofluorescence confocal microscopy of Omi in Hela cells; format: cell-based, human; conditions: staurosporine 1 μM, 5 hours; untreated cells mostly punctate and perinuclear
[3] = system: MCF-7 cells; test: Apoptosis of MCF-7 cells transfected with cytosolic Omi-GFP fusion proteins; format: cell-based; conditions: zVAD-FMK 20 μM; MCF-7 cells transfected with M-Omi-GFP
Protocol: FIG. 20 provides schematic diagrams of the Omi-GFP and GFP-IETD-Omi constructs used to assay the ability of Omi to induce apoptosis or to enhance apoptosis by other stimuli.
FIG. 21 is a bar graphic representation of the percentages of GFP-positive apoptotic MCF-7 cells 36 hours following transfection with M-Omi-S/A-GFP or pEGFP-N1 alone or M-Omi-GFP together with empty vector or expression construct encoding XIAP, XIAP-BIR3, or caspase-9DN. The cells were also transfected with M-Omi-GFP expression construct in the presence of zVAD-FMK (20 μM).

[4] = system: 293 and MCF-7 cells; test: Caspase-dependent processing of GFP-IETD-Omi at the IETD site in transfected cells (immunoblot); format: cell-based; conditions: cytosolic extracts, zVAD-FMK 20 μM
Protocol: FIG. 23 is a scanned image of an immunoblot with Flag-HRP antibody of MCF-7 and 293T cells 24 hours following transfected with pEGFP or M-Omi-Flag, GFP-IETD-AVP (AVP) or GFP-IETD-SSA (SSA) expression constructs in the presence or absence of zVAD-FMK (20μM). M-Omi-Flag is similar to the M-Omi-GFP shown in FIG. 20, except that the GFP tag was replaced with a Flag tag.
(§1) Next, the contribution of the IAP binding activity of Omi to its proapoptotic activity was tested. The MTS of Omi was replaced with a GFP-IETD sequence and mutated at its active site Ser306 to Ala (FIG. 20, GFP-IETD-AVP). Of note, the presence of the IETD sequence between GFP and Omi-S/A allowed caspase-dependent cleavage at the IETD site after the Asp residue and release of mature Omi-S/A in the cytosol of the transfected 293 and MCF-7 cells (FIG. 23). […] Taken together, Omi not only can induce apoptosis through its serine protease activity but also via its ability to bind and neutralize IAPs.

[5] = biological target: T1, XIAP-BIR3 (Homo sapiens, UniProt P98170); test: GST-BIR3 precipitation of extracts of transfected 293T cells; format: binding; conditions: 24 hours after transfection
T1 construct: Omi associates directly with the BIR3 domain of XIAP
T1 sequence (P98170 238-358 limits assumed): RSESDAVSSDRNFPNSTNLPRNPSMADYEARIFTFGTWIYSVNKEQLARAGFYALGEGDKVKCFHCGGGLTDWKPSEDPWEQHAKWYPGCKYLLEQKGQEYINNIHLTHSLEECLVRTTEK
Protocol: FIG. 24 is a scanned image of an immunoblot with Flag-HRP antibody of 293T cells extracts precipitated with GST-BIR3 24 hours after transfection with the indicated expression constructs extracts.
as §1

**Q.** Which “accumulation of cytochrome c, Smac and Omi in the cytosol” value [1] does the source give for `CN[C@@H]1C[C@H]2O[C@@](C)([C@@H]1OC)n1c3ccccc3c3c4c(c5c6ccccc6n2c5c31)C(=O)NC4` [staurosporine] here?
**A.** accumulated in the cytosol of these cells in a time dependent manner

**Q.** What about the “time of maximum processing of procaspase-3 after treatment” value [1] of the same compound?
**A.** 6 to 8 h

**Q.** And the “immunofluorescence staining pattern of Omi” value [2]?
**A.** showed diffused immunofluorescence staining of Omi

**Q.** With `COC(=O)C[C@H](NC(=O)[C@H](C)NC(=O)[C@@H](NC(=O)OCc1ccccc1)C(C)C)C(=O)CF` [zVAD-FMK, reference compound] (Cbz-Val-Ala-Asp(OMe)-CH2F) as the compound, how does the “block of M-Omi-GFP-induced apoptosis” value [3] read?
**A.** did not block the ability of M-Omi-GFP to induce apoptosis

**Q.** What about the “processing at the IETD site” value [4] of the same compound?
**A.** very little or no processing at the IETD site was observed

**Q.** With “mature Omi-S/A: mature Omi-S/A released in the cytosol by caspase-dependent cleavage of GFP-IETD-AVP at the IETD site” as the compound, how does the “binding to XIAP-BIR3 (GST-BIR3)” value [5] read?
**A.** able to bind the GST-BIR3 fusion protein
